The source of these data is patent publication US5714491A, “Peptidyl derivatives as metalloproteinase inhibitors” (Celltech Therapeutics Limited, priority 1993, dated 1998).

The target in one assay is Collagenase. Nature of the assay: Enzyme inhibition assay with fluorogenic peptide substrate, collagenase. The format is biochemical. The conditions noted are these: Ki (app) assumed to approximate true Ki. On the procedure: (§1) All enzyme assays to determine Ki values were performed using the peptide substrate Dnp-Pro-Leu-Gly-Leu-Trp-Ala-D-Arg-NH2. [M. Sharon Stock and Robert D. Gray, JBC 264, 4277-81, 1989]. The enzymes cleave at the Gly-Leu bond which can be followed fluorimetrically by measuring the increase in Trp fluorescence emission associated with the removal of the quenching dinitrophenol (Dnp) group.
(§2) Essentially, enzyme (e.g. gelatinase, stromelysin, collagenase) at 0.08-2 nM; a range of inhibitor concentrations (0.1-50×Ki) and substrate (approx. 20 μm) are incubated overnight in 0.1M Tris/HCI buffer, pH 7.5, containing 0.1M NaCl, 10 mM CaCl2 and 0.05%. Brij 35 at either room temperature or 37° C. depending on the enzyme. The reaction is stopped by adjusting the pH to 4 using 0.1M sodium acetate buffer and the fluorescence read at an excitation wavelength of 280 nm and emission wavelength of 346 nm.
(§3) Ki values can be established using the equation for tight-binding inhibition: [formula] where VO is the initial rate of reaction in the absence of inhibitor, Vi is the initial rate in the presence of inhibitor, [E] is the total enzyme concentration and [I] the total inhibitor concentration in the reaction mixture.
(§4) For stromelysin and collagenasa, Ki (app) was assumed to approximate to the true Ki as [S]<<Km for the substrate hydrolysis. For gelatinase the Ki was determined by performing the analyses at several substrate concentrations. A plot of Ki (app) vs. [S] then gave the true Ki as the value of the y-axis intercept.

In a further assay the target is Stromelysin-1 (Homo sapiens, UniProt P08254). Nature of the assay: Enzyme inhibition assay with fluorogenic peptide substrate, stromelysin-1. The format is biochemical. The conditions noted are these: Ki (app) assumed to approximate true Ki. On the procedure:
as §1, §2, §3, §4

A further assay concerns the target T1, Gelatinase-72KD (Homo sapiens, UniProt P08253).
T1 sequence (P08253 110-660): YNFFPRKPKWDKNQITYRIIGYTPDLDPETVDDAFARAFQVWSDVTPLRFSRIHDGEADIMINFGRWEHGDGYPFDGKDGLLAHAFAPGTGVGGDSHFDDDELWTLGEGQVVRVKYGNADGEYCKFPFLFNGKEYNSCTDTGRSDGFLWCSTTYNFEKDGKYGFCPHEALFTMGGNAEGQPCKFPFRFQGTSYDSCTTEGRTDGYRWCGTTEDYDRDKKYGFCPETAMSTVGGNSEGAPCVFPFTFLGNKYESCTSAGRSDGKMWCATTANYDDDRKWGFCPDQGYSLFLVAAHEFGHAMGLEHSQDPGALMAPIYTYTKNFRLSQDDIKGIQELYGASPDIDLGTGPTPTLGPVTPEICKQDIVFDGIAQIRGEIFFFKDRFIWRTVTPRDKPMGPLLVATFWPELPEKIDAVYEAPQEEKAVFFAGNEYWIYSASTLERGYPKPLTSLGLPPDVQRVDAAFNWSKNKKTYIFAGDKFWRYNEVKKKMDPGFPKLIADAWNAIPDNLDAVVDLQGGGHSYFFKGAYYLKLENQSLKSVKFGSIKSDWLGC
Nature of the assay: Enzyme inhibition assay with fluorogenic peptide substrate, gelatinase-72KD. To be noted: true Ki from plot of Ki (app) vs. [S]. The format is biochemical. The protocol:
as §1, §2, §3, §4

Another assay addresses T2, gelatinase A (72K form) (Homo sapiens, UniProt P08253).
T2 sequence (P08253 110-660): T1 sequence (P08253 110-660)
As to the kind of experiment: Mouse pleural cavity assay (oral activity). To be noted: administered orally, around 25 μm/Kg. The class given is in vivo. On the procedure: The oral activity of the compounds according to the invention may be determined using the mouse pleural cavity assay described below. This assay measures the ability of compounds of the invention when adminstered orally to inhibit a subsequent inoculation of gelatinase into the mouse pleural cavity.
A 2 ml solution of the test compound (for example around 25 μm/Kg) in an appropriate solvent (e.g. 50% polyethylene glycol (PG)) plus a variable proportion of dimethyl sulphoxide (DMSO) (if required) is administered orally. After an interval of up to 24 hrs, 0.4 ml of a mixture of an equal volume (2.2 ml) of the enzyme gelatinase A (72K form at a concentration of 20 nM) and radiolabelled [^14 C]-gelatin (at an approximate concentration of 10 μM i.e. 500 times molar excess) is injected into the pleural cavity and maintained at […]. […] The resulting TCA precipitate is then separated by centrifugation and radioactivity in each supernatant measured by scintillation counting. Results are expressed as a % inhibition of enzyme activity calculated by comparing the radioactivity measured for each test compound with a control value obtained by performing the same assay in the absence of a gelatinase inhibitor. […]

Stromelysin-1, sequence (P08254 100-477, species assumed): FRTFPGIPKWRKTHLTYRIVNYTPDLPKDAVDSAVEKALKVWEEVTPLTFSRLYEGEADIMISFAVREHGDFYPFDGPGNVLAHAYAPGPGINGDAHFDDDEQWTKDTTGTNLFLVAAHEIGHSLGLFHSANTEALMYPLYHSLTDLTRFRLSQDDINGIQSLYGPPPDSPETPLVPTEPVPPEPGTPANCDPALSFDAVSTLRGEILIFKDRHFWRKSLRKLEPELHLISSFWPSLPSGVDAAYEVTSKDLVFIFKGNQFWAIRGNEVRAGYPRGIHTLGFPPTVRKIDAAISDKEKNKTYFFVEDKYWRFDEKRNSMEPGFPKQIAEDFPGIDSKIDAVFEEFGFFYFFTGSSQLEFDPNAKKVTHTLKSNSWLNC

`CC(C)(S)[C@@H](NC(=O)[C@H](CCCc1ccc(Cl)cc1)CC(=O)NO)C(N)=O` [Example 3b), [4-(N-Hydroxyamino)-2(R)-[3-(4-chlorophenyl)propyl]-1-succinyl]-L-penicillamine amide]: the values for the Ki on Collagenase, on Stromelysin-1 and on Gelatinase-72KD were 122 nM, 3.6 nM and 0.027 nM, respectively. Moreover, at gelatinase A (72K form), the “% inhibition of enzyme activity” value was 100%.
As to `CNC(=O)[C@H](NC(=O)[C@H](CCCc1ccc(Cl)cc1)CC(=O)NO)C(C)(C)SC` [Example 3a), [4-(N-Hydroxyamino)-2(R)-[3-(4-chlorophenyl)propyl]succinyl]-L-[S-(methyl)penicillamine]-N-methylamide], the Ki at Collagenase came out at 26.3 nM; at Stromelysin-1, 5.3 nM; at Gelatinase-72KD, 0.005 nM.
`CNC(=O)[C@H](NC(=O)[C@H](CCCc1ccc(Cl)cc1)CC(=O)NO)C(C)(C)S(C)(=O)=O` [Example 4, {4-(N-Hydroxyamino)-2(R)-[3-(4-chlorophenyl)propyl]succinyl}-L-[S-(methyl)penicillaminesulphone]-N-methylamide]: the Ki stood at 20.7 nM at Collagenase, 5.92 nM on Stromelysin-1 and 0.005 nM at Gelatinase-72KD.
